The test system of test [1] is Zika virus. The test is described as follows: EC50 is reported via analysis of immunofluorescence staining. The assay has been performed by Icahn School of Medicine at Mount Sinai. The class given is functional, organism-based, Chlorocebus sabaeus, VeroE6/TMPRSS2. As to conditions: for EC90: P-gp concentration 2 uM, P-gp inhibitor Elacidar.
Test [2] has as its system dengue virus type 2. The test is described as follows: Functional immunofluorescence assay to measure dose dependent changes in antiviral-drug inhibitory efficacy against Dengue virus type 2 Thailand/16681/84 in Vero E6/TMPRSS2 cells (cotreated with P-gp inhibitor, Elacridar). Cells are treated with antiviral candidates that are serially diluted, following infection, cells are fixed. EC50 is reported via analysis of immunofluorescence staining. The assay has been performed by Icahn School of Medicine at Mount Sinai. The format is organism-based, Chlorocebus sabaeus, VeroE6/TMPRSS2. As to conditions: for EC90: P-gp concentration 2 uM, P-gp inhibitor Elacidar.

Test [3] has as its system Zika virus. Nature of the test: Functional CPE-based assay to measure dose dependent changes in antiviral-drug inhibitory efficacy against Zika virus MR766 in Vero E6 miRFP670 cells (cotreated with P-gp inhibitor, CP100356). Cells are treated with antiviral candidates that are serially diluted. EC50 is reported via analysis of MTS assay as a readout of CPE. The assay has been performed by KU Leuven. The class given is organism-based, Chlorocebus sabaeus, Vero C1008. As to conditions: for EC90: Baseline response 0 %, Maximum response 100 %, P-gp concentration 500 nM, P-gp inhibitor CP100356. Background: Formazan colour is commonly taken as a measure of viable cells.

Test [4] relates to dengue virus type 2. Nature of the test: Functional assay to measure dose dependent changes in antiviral-drug inhibitory efficacy against Dengue virus type 2 New Guinea C in Vero E6 miRFP670 cells (cotreated with P-gp inhibitor, CP100356). Cells are treated with antiviral candidates that are serially diluted, following infection, cells are fixed. EC50 is reported via analysis of fluorescence intensity using high-content imager. The …. The format is organism-based, Chlorocebus sabaeus, Vero C1008. As to conditions: for EC90: P-gp concentration 500 nM, P-gp inhibitor CP100356.

A word on the EC90: it is the point of the concentration-response curve where the effect stands at 90%. A word on the EC50: it is the midpoint of the concentration-response curve.

SMILES strings stand for the structures. Values joined by “and” are separate entries in the source; they are usually repeats but may differ in a detail not shown here. Equal values may be shown once. A value given as a limit tells only on which side of the number the result lay.

As to `O=C(NCC(F)F)[C@H](Nc1ccc2c(c1)CNC2)c1cc(Cl)cc(C2CC2)c1`, the EC90 was above 5.56 µM in test [1] (Baseline response 0 %, Hill slope -0.396, Maximum measured 99.851 %, Maximum response 100 %, Minimum measured 40.832 %, R squared 0.557); above 5.56 µM in test [1] (Baseline response 0 %, Hill slope -0.815, Maximum measured 101.881 %, Maximum response 50 %, Minimum measured 25.102 %, R squared 0.285); above 1.85 µM in test [1] (Zika virus, VeroE6/TMPRSS2, Maximum measured 91.336 %, Minimum measured 34.975 %); above 5.56 µM in test [1] (Zika virus, VeroE6/TMPRSS2, Baseline response 0 %, Hill slope -0.205, Maximum measured 120.59 %, Maximum response 100 %, Minimum measured 43.549 %, R squared 0.084); above 50 µM in test [2] (Dengue virus, VeroE6/TMPRSS2, Maximum measured 212.671 %, Minimum measured 62.173 %); 3.54 µM in test [3] (EC90 CI (lower) 0 uM, EC90 CI (upper) 0 uM, Hill slope 19.422, Maximum measured 104.146 %, Minimum measured 1.001 %, R squared 0.972). Further, the concentration for an effect of 90% (EC90) in test [3] (EC90 CI (lower) 1.312 uM, EC90 CI (upper) 1.931 uM, Hill slope 6.18, Maximum measured 105.591 %, Minimum measured 3.511 %, R squared 0.974) was 1.59 µM; in test [3] (EC90 CI (lower) 26.105 uM, EC90 CI (upper) 61.789 uM, Hill slope 1.533, Maximum measured 103.939 %, Minimum measured 1.936 %, R squared 0.959) it was 40.2 µM; in test [4] (Dengue virus, Vero C1008, Maximum measured 140.556 %, Minimum measured 63.358 %), above 50 µM; in test [4] (Dengue virus, Vero C1008, Maximum measured 143.73 %, Minimum measured 67.897 %), above 25 µM; in test [4] (Dengue virus, Vero C1008, Baseline response 0 %, Hill slope -0.993, Maximum measured 109.944 %, Maximum response 100 %, Minimum measured 57.337 %, R squared 0.512) it was above 50 µM. Besides, the EC50 is above 50 µM in test [2] (Dengue virus, VeroE6/TMPRSS2); 9.58 µM and 3.16 µM and 1.11 µM in test [3] (vero c1008); above 50 µM in test [4] (Dengue virus, Vero C1008); above 25 µM in test [4] (vero c1008).
Take `O=C(NC1CCOCC1)[C@H](Nc1ccc2c(c1)CNC2)c1cc(Cl)cc(C2CC2)c1`: the EC90 in test [1] (Baseline response 0 %, Hill slope -0.296, Maximum measured 102.901 %, Maximum response 100 %, Minimum measured 72.878 %, R squared 0.169) is above 16.7 µM; in test [1] (Baseline response 0 %, Hill slope -0.385, Maximum measured 147.213 %, Maximum response 4776.39 %, Minimum measured 30.718 %, R squared 0.741) it was below 0.023 µM; in test [2] (Dengue virus, VeroE6/TMPRSS2, Maximum measured 137.73 %, Minimum measured 84.756 %), above 5.56 µM; in test [3] (Zika virus, Vero C1008, EC90 CI (lower) 0.059 uM, EC90 CI (upper) 333.672 uM, Hill slope 6.678, Maximum measured 170.178 %, Minimum measured 3.055 %, R squared 0.499) it was 4.44 µM; in test [4] (Dengue virus, Vero C1008, Baseline response 0 %, Hill slope -0.982, Maximum measured 114.445 %, Maximum response 100 %, Minimum measured 34.266 %, R squared 0.594), above 50 µM. The EC50 in test [2] (Dengue virus, VeroE6/TMPRSS2) was above 5.56 µM; in test [3] (Zika virus, Vero C1008), 3.19 µM; in test [4] (Dengue virus, Vero C1008) it was 36 µM.
In the case of `O=C(Nc1ccc2c(c1)CNC2)c1cc(F)cc2[nH]ncc12`, the EC90 is 39.5 µM in test [1] (Baseline response 0 %, EC90 CI (lower) 0.259 uM, EC90 CI (upper) 34.627 uM, Hill slope -1.703, Maximum measured 110.866 %, Maximum response 50 %, Minimum measured 3.647 %, R squared 0.44); above 50 µM in test [1] (Zika virus, VeroE6/TMPRSS2, Baseline response 0 %, Hill slope -2.726, Maximum measured 111.669 %, Maximum response 100 %, Minimum measured 14.076 %, R squared 0.547); above 50 µM in test [2] (Dengue virus, VeroE6/TMPRSS2, Maximum measured 176.33 %, Minimum measured 105.177 %); above 50 µM in test [3] (Zika virus, Vero C1008, Hill slope 1.231, Maximum measured 66.562 %, Minimum measured -0.926 %, R squared 0.986); above 50 µM in test [4] (Dengue virus, Vero C1008, Maximum measured 105.261 %, Minimum measured 100.126 %). The EC50 in test [1] (veroe6/tmprss2) was 25.4 µM and 10.9 µM; in test [2] (Dengue virus, VeroE6/TMPRSS2), above 50 µM; in test [3] (Zika virus, Vero C1008), 25 µM; in test [4] (Dengue virus, Vero C1008), above 50 µM.
Regarding `O=C(Nc1ccc2c(c1)CNC2)c1cc(Br)cc2[nH]ncc12`, the EC90 in test [1] (Baseline response 0 %, EC90 CI (lower) 1.042 uM, EC90 CI (upper) 22.584 uM, Hill slope -2.906, Maximum measured 100.475 %, Maximum response 60 %, Minimum measured 3.913 %, R squared 0.559) is 22 µM; in test [1] (Baseline response 0 %, Hill slope -0.436, Maximum measured 89.533 %, Maximum response 80 %, Minimum measured 16.256 %, R squared 0.57) it was above 50 µM; in test [2] (Dengue virus, VeroE6/TMPRSS2, Maximum measured 186.968 %, Minimum measured 93.389 %) it was above 50 µM; in test [3] (Zika virus, Vero C1008, Hill slope 1.733, Maximum measured 40.291 %, Minimum measured -1.647 %, R squared 0.923), above 50 µM; in test [4] (Dengue virus, Vero C1008, Baseline response 0 %, Hill slope -0.471, Maximum measured 107.19 %, Maximum response 100 %, Minimum measured 78.588 %, R squared 0.089) it was above 50 µM. Moreover, the EC50 was 3.73 µM and 10.3 µM in test [1] (veroe6/tmprss2); above 50 µM in test [2] (Dengue virus, VeroE6/TMPRSS2); above 50 µM in test [3] (Zika virus, Vero C1008); above 50 µM in test [4] (Dengue virus, Vero C1008).
As to `CC(=O)Nc1cc(Br)cc(C(=O)Nc2ccc3c(c2)CNC3)c1`, the EC90 is above 50 µM in test [1] (Baseline response 0 %, Hill slope -0.518, Maximum measured 97.567 %, Maximum response 50 %, Minimum measured 37.703 %, R squared 0.045); above 50 µM in test [1] (Zika virus, VeroE6/TMPRSS2, Baseline response 0 %, Hill slope -0.196, Maximum measured 132.114 %, Maximum response 100 %, Minimum measured 61.615 %, R squared 0.024); above 50 µM in test [2] (Dengue virus, VeroE6/TMPRSS2, Maximum measured 175.614 %, Minimum measured 132.324 %); above 50 µM in test [3] (Zika virus, Vero C1008, Hill slope -0.049, Maximum measured 5.994 %, Minimum measured 2.41 %, R squared 0.015); above 50 µM in test [4] (Dengue virus, Vero C1008, Baseline response 0 %, Hill slope 0.424, Maximum measured 105.264 %, Maximum response 100 %, Minimum measured 74.207 %, R squared 0.146). The EC50 is above 50 µM in test [1] (Zika virus, VeroE6/TMPRSS2); above 50 µM in test [2] (Dengue virus, VeroE6/TMPRSS2); above 50 µM in test [3] (Zika virus, Vero C1008); above 50 µM in test [4] (Dengue virus, Vero C1008).
Consider `O=C(Nc1ccc2c(c1)CNC2)c1cc(Cl)cc2ccncc12`, for which the EC90 in test [1] (Baseline response 0 %, EC90 CI (lower) 0.484 uM, EC90 CI (upper) 78.893 uM, Hill slope -5.004, Maximum measured 134.979 %, Maximum response 50 %, Minimum measured 2.857 %, R squared 0.323) was 14.9 µM; in test [1] (Zika virus, VeroE6/TMPRSS2, Baseline response 0 %, Hill slope -17.627, Maximum measured 65.213 %, Maximum response 47.14 %, Minimum measured 8.096 %, R squared 0.51) it was 18.3 µM; in test [2] (Dengue virus, VeroE6/TMPRSS2, Maximum measured 58.239 %, Minimum measured 35.466 %) it was above 50 µM; in test [2] (Dengue virus, VeroE6/TMPRSS2, Baseline response 0 %, Hill slope -1.704, Maximum measured 164.443 %, Maximum response 150 %, Minimum measured 48.079 %, R squared 0.653), above 50 µM; in test [3] (Zika virus, Vero C1008, EC90 CI (lower) 1.242 uM, EC90 CI (upper) 28.049 uM, Hill slope 4.622, Maximum measured 165.724 %, Minimum measured 0.965 %, R squared 0.715), 5.9 µM; in test [4] (Dengue virus, Vero C1008, Baseline response 0 %, Hill slope -2.845, Maximum measured 98.374 %, Maximum response 100 %, Minimum measured 34.264 %, R squared 0.76), above 50 µM. The EC50 is 16.1 µM in test [1] (Zika virus, VeroE6/TMPRSS2); 9.59 µM in test [1] (veroe6/tmprss2); above 50 µM in test [2] (Dengue virus, VeroE6/TMPRSS2); 29.3 µM in test [2] (veroe6/tmprss2); 3.67 µM in test [3] (Zika virus, Vero C1008); 41.2 µM in test [4] (Dengue virus, Vero C1008).

The values above are taken from ChEMBL document CHEMBL5661943, “ASAP - In vitro antiviral effect” (2024).
